Source: ChEMBL document CHEMBL1131602 (J Med Chem, 1998)

Columns and labels:
[1] = molecular target: T1, Bifunctional dihydrofolate reductase-thymidylate synthase (Plasmodium falciparum K1, UniProt P13922); assay: Binding affinity was evaluated as inhibition of mutant (C59R + S108N) Plasmodium falciparum DHFR-TS.
Target sequence in this assay (P13922 whole entry): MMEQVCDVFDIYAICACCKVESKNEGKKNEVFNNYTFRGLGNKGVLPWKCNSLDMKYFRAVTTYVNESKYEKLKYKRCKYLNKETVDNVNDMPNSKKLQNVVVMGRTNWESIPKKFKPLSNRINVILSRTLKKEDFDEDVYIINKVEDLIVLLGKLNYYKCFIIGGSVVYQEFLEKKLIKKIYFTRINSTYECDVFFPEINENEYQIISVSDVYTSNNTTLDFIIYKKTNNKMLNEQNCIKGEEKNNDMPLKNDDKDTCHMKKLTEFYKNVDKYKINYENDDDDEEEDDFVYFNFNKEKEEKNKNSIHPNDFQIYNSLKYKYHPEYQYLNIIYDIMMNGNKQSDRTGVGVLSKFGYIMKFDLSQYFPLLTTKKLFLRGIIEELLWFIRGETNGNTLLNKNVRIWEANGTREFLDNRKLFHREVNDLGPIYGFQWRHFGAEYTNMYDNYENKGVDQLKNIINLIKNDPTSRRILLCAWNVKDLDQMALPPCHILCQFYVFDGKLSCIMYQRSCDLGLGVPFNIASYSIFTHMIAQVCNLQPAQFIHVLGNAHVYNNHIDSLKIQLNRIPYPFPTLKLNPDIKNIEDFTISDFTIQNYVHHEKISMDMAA

[2] = molecular target: T1, Bifunctional dihydrofolate reductase-thymidylate synthase; assay: Binding affinity was evaluated as inhibition of recombinant wild type (WT) Plasmodium falciparum DHFR-TS.
Target sequence in this assay (P13922 whole entry): as above

[3] = Ratio of inhibitions against mutant and wild type (WT) Plasmodium falciparum DHFR-TS.
Plasmodium falciparum [4] = assay: In vitro inhibition of Plasmodium falciparum HB3 (S108N) culture; assay type: functional, organism-based
Plasmodium falciparum [5] = assay: In vitro inhibition of Plasmodium falciparum K1 (S108N + C59R) culture; assay type: functional, organism-based
[6] = molecular target: T1, Bifunctional dihydrofolate reductase-thymidylate synthase; assay: Inhibitory activity against mutant Plasmodium falciparum DHFR-TS
Target sequence in this assay (P13922 whole entry, looked up): as the sequence (P13922 whole entry) above

[7] = molecular target: T1, Bifunctional dihydrofolate reductase-thymidylate synthase; assay: Inhibitory activity against recombinant wild type (WT) Plasmodium falciparum DHFR-TS
Target sequence in this assay (P13922 whole entry): as above

Compound | Ki [1] [nM] | Ki [2] [nM] | Ratio [3] | IC50 (Plasmodium falciparum [4]) [nM] | IC50 (Plasmodium falciparum [5]) [nM] | IC50 [6] [nM] | Ki [6] [nM] | IC50 [7] [nM]
NC(=O)c1ccc[n+]([C@H]2O[C@@H](COP(=O)([O-])OP(=O)(O)OC[C@H]3O[C@@H](n4cnc5c(N)ncnc54)[C@H](OP(=O)(O)O)[C@@H]3O)[C@H](O)[C@@H]2O)c1 [NICOTINAMIDE ADENINE DINUCLEOTIDE PHOSPHATE] | 14.5 | 4.7 | 3.09 |  |  |  |  | 
CCc1nc(N)nc(N)c1-c1ccc(Cl)cc1 [PYRIMETHAMINE] |  |  |  | 1.2 | 10.2 |  |  | 
CC1(C)N=C(N)N=C(N)N1c1ccc(Cl)cc1 [CYCLOGUANIL] | 82.1 | 2.6 | 31.5 |  |  |  |  | 
CCc1nc(N)nc(N)c1-c1cccc(OC)c1 | 14 | 1.07 | 13.1 | 0.2 | 3.7 | 73 | 14 | 9.3
CCc1nc(N)nc(N)c1-c1cccc(Cl)c1 | 2.4 | 0.3 | 8 |  |  | 12.7 |  | 2.7
